Results from US10709129B2, “Synergistic combination of bis-(3-aminopropyl)dodecylamine and sorbic acid” (DDP SPECIALTY ELECTRONIC MATERIALS US, INC., priority 2016, dated 2020).

Assays:
[1] = tested on: Candida albicans (DSMZ#1386); test: Minimum Inhibitory Concentration (MIC) test and synergy index (Kull method), TSB pH 5; format: cell-based; conditions: DSM 1386 / DSMZ1386, Candida albicans DSM# 1386, 30° C., 72 hours, read-out: MIC results for single biocides
Protocol: (§1) The synergism of the biocides combination of the present invention was determined using the Minimum Inhibitory (MIC) test method described by Kull, F. C., et. al in Applied Microbiology 9:538-541 (1961). The formula to calculate the synergy index (SI) is SI=Qa/QA+Qb/QB Where • QA=minimum inhibitory concentration in ppm of compound A acting alone • Qa=minimum inhibitory concentration in ppm of compound A in the mixture. • QB=minimum inhibitory concentration in ppm of compound B acting alone. • Qb=minimum inhibitory concentration in ppm of compound B in the mixture. […] The Minimum Inhibitory Concentration Test (MIC) is designed to evaluate the lowest concentration of a biocide, biocide blend or biocide combination to prevent bacteria growing in a defined broth. […] The synergy testing was carried out as follows: • 1. The test was executed with a Hamilton MLStarPlus robot using automated turbidity reading with BioTek Synergy H4 plate reader. • 2. […] Reading of the results was carried out by measuring absorbance at 600 nm for each sample at the beginning of the test (tzero) and after incubation (tendpoint). tendpoint was chosen at 48 hours for bacteria and 72 hours for yeast. The difference in absorbance between tendpoint and tzero was used to determine growth (Δ>0.2) or no growth (Δ≤0.2).

[2] = tested on: Pseudomonas aeruginosa (DSMZ#939); test: as above; format: cell-based; conditions: DSM 939 / DSMZ939, Pseudomonas aeruginosa DSM# 939, 30° C., 48 hours, read-out: MIC results for single biocides
Protocol: as §1

SMILES | MIC [1] [µg/mL] | MIC [2] [µg/mL]
CCCCCCCCCCCCN(CCCN)CCCN [BDA, bis-(3-aminopropyl)dodecylamine] | ≥ 260 | 200
C/C=C/C=C/C(=O)O [SA, sorbic acid] | 725 | 1230
